Results taken from patent US4543408A, “Stable S-adenosylmethionine salts, the process for their preparation, and therapeutic compositions which contain them as active principle” (Bioresearch S.p.A., priority 1981, dated 1985).

Assays:
Residual moisture = format: physicochemical
[1] = format: physicochemical; conditions: solid salt storage; for degradation at 45° C. after 60 days: 1440 h; for degradation at 45° C. after 120 days: 2880 h; for degradation at 45° C. after 180 days: 4320 h; for degradation at 45° C. after 240 days: 5760 h; for degradation at 45° C. after 360 days: 8640 h
Procedure: Stability tests were carried out on the salts prepared in the described manner, by keeping the product in an oven temperature controlled at 45° C. and determining the percentage of residual salt at fixed times. The tests were carried out in comparison with SAM.nHCl salts in which n=1,2 and 3, prepared by the known method (U.S. Pat. No. 2,969,353), and in comparison with SAM.nH2 SO4 salts in which n=0.5,1 and 1.5, also prepared by the known method (West German patent application No. 1,803,978).
The following tables show the percentages of decomposed salt at the times indicated:
Analytical conditions used:
SAM retention time: about 400 seconds.

physchem = conditions: water
[2] = Wide pharmacological screening trial; format: in vivo; conditions: independent of the anion bonded to the SAM
Excerpt: It was established that the activity of the new salts depends substantially on the capacity of the SAM^+ ion released in the organism to act as a donor of methyl groups, as the natural substrate of a large number of transmethylase enzymes which catalyse fundamental reactions of the lipid, protide and glucide metabolism.

[3] = prior-art salts; cited from earlier work
[4] = Tables 1-4, salts lyophilised without support

**Q.** For `C[S+](CCC(N)C(=O)[O-])CC1OC(n2cnc3c(N)ncnc32)C(O)C1O` (stereo not drawn) [SAM.1.5H2 SO4.nHCl, n=1], which residual moisture (Residual moisture; [4]) is on record?
**A.** 1%

**Q.** What about the “degradation at 45° C. after 60 days” value [1] of the same compound?
**A.** 5%

**Q.** And the “degradation at 45° C. after 120 days” value [1]?
**A.** 10%

**Q.** And the “degradation at 45° C. after 180 days” value [1]?
**A.** 14%

**Q.** And the “degradation at 45° C. after 240 days” value [1]?
**A.** 17%

**Q.** And the “degradation at 45° C. after 360 days” value [1]?
**A.** 20%

**Q.** Which results are given for `C[S+](CCC(N)C(=O)[O-])CC1OC(n2cnc3c(N)ncnc32)C(O)C1O` (stereo not drawn) [SAM.1.5H2 SO4.nHCl, n=2]?
**A.** residual moisture (Residual moisture; [4]): 1.5%; residual moisture (Residual moisture; Tables 1-4, salts lyophilised without support, listed as SAM.2HCl.nH2 SO4, n=1.5): 1.5%; degradation at 45° C. after 120 days [1]: 1.5%; degradation at 45° C. after 180 days [1]: 3%; degradation at 45° C. after 240 days [1]: 4.5%; degradation at 45° C. after 360 days [1]: 5%

**Q.** With `C[S+](CCC(N)C(=O)[O-])CC1OC(n2cnc3c(N)ncnc32)C(O)C1O` (stereo not drawn) [SAM.1.5H2 SO4.nHCl, n=3] as the compound, how does the residual moisture (Residual moisture; [4]) read?
**A.** 2%

**Q.** What about the “degradation at 45° C. after 60 days” value [1] of the same compound?
**A.** 5%

**Q.** What about the “degradation at 45° C. after 120 days” value [1] of the same compound?
**A.** 10%

**Q.** And the “degradation at 45° C. after 180 days” value [1]?
**A.** 14%

**Q.** What about the “degradation at 45° C. after 240 days” value [1] of the same compound?
**A.** 17%

**Q.** And the “degradation at 45° C. after 360 days” value [1]?
**A.** 20%

**Q.** What does the source list for `C[S+](CCC(N)C(=O)[O-])CC1OC(n2cnc3c(N)ncnc32)C(O)C1O` (stereo not drawn) [SAM.2.5H2 SO4]?
**A.** residual moisture (Residual moisture; Tables 1-4, salts lyophilised without support, listed as SAM.nH2 SO4, n=3.5): 1.5%; degradation at 45° C. after 120 days [1]: 1.5%; degradation at 45° C. after 180 days [1]: 3%; degradation at 45° C. after 240 days [1]: 4.5%; degradation at 45° C. after 360 days [1]: 5%; solubility (physchem): > 200 mg/mL

**Q.** What does the source list for `C[S+](CCC(N)C(=O)[O-])CC1OC(n2cnc3c(N)ncnc32)C(O)C1O` (stereo not drawn) [SAM.2H2 SO4.0.4H2 O]?
**A.** residual moisture (Residual moisture; Tables 1-4, salts lyophilised without support, listed as SAM.nH2 SO4, n=2): 1%; degradation at 45° C. after 60 days [1]: 5%; degradation at 45° C. after 120 days [1]: 10%; degradation at 45° C. after 180 days [1]: 14%; degradation at 45° C. after 240 days [1]: 17%; degradation at 45° C. after 360 days [1]: 20%

**Q.** With `C[S+](CCC(N)C(=O)[O-])CC1OC(n2cnc3c(N)ncnc32)C(O)C1O` (stereo not drawn) [SAM.2HCl.nH2 SO4, n=0.5, reference compound] as the compound, how does the residual moisture (Residual moisture; [4]) read?
**A.** 0.8%

**Q.** What about the “degradation at 45° C. after 60 days” value [1] of the same compound?
**A.** 30%

**Q.** And the “degradation at 45° C. after 120 days” value [1]?
**A.** 60%

**Q.** And the “degradation at 45° C. after 180 days” value [1]?
**A.** 80%

**Q.** What about the “degradation at 45° C. after 240 days” value [1] of the same compound?
**A.** 100%

**Q.** What about the “degradation at 45° C. after 360 days” value [1] of the same compound?
**A.** 100%

**Q.** What does the source list for `C[S+](CCC(N)C(=O)[O-])CC1OC(n2cnc3c(N)ncnc32)C(O)C1O` (stereo not drawn) [SAM.2HCl.nH2 SO4, n=1]?
**A.** residual moisture (Residual moisture; [4]): 1%; degradation at 45° C. after 60 days [1]: 5%; degradation at 45° C. after 120 days [1]: 10%; degradation at 45° C. after 180 days [1]: 14%; degradation at 45° C. after 240 days [1]: 17%; degradation at 45° C. after 360 days [1]: 20%

**Q.** What does the source list for `C[S+](CCC(N)C(=O)[O-])CC1OC(n2cnc3c(N)ncnc32)C(O)C1O` (stereo not drawn) [SAM.2HCl.nH2 SO4, n=2]?
**A.** residual moisture (Residual moisture; [4]): 2%; degradation at 45° C. after 60 days [1]: 5%; degradation at 45° C. after 120 days [1]: 10%; degradation at 45° C. after 180 days [1]: 14%; degradation at 45° C. after 240 days [1]: 17%; degradation at 45° C. after 360 days [1]: 20%

**Q.** With `C[S+](CCC(N)C(=O)[O-])CC1OC(n2cnc3c(N)ncnc32)C(O)C1O` (stereo not drawn) [SAM.3H2 SO4.0.7H2 O] as the compound, how does the residual moisture (Residual moisture; Tables 1-4, salts lyophilised without support, listed as SAM.nH2 SO4, n=3) read?
**A.** 2%

**Q.** And the “degradation at 45° C. after 60 days” value [1]?
**A.** 5%

**Q.** And the “degradation at 45° C. after 120 days” value [1]?
**A.** 10%

**Q.** What about the “degradation at 45° C. after 180 days” value [1] of the same compound?
**A.** 14%

**Q.** What about the “degradation at 45° C. after 240 days” value [1] of the same compound?
**A.** 17%

**Q.** And the “degradation at 45° C. after 360 days” value [1]?
**A.** 20%

**Q.** Which results are given for `C[S+](CCC(N)C(=O)[O-])CC1OC(n2cnc3c(N)ncnc32)C(O)C1O` (stereo not drawn) [SAM.4HCl.0.4H2 O]?
**A.** residual moisture (Residual moisture; Tables 1-4, salts lyophilised without support, listed as SAM.nHCl, n=4): 1%; degradation at 45° C. after 60 days [1]: 5%; degradation at 45° C. after 120 days [1]: 10%; degradation at 45° C. after 180 days [1]: 14%; degradation at 45° C. after 240 days [1]: 17%; degradation at 45° C. after 360 days [1]: 20%

**Q.** Which residual moisture (Residual moisture; Tables 1-4, salts lyophilised without support, listed as SAM.nHCl, n=5) does the source give for `C[S+](CCC(N)C(=O)[O-])CC1OC(n2cnc3c(N)ncnc32)C(O)C1O` (stereo not drawn) [SAM.5HCl] here?
**A.** 1.5%

**Q.** And the residual moisture (Residual moisture; lyophilised without support, with mannitol or with Aerosil)?
**A.** 1.5%

**Q.** What about the “degradation at 45° C. after 120 days” value [1] of the same compound?
**A.** 1.5%

**Q.** And the “degradation at 45° C. after 180 days” value [1]?
**A.** 3%

**Q.** What about the “degradation at 45° C. after 240 days” value [1] of the same compound?
**A.** 4.5%

**Q.** And the “degradation at 45° C. after 360 days” value [1]?
**A.** 5%

**Q.** And the “activity and toxicity characteristics” value [2]?
**A.** highly interesting activity and toxicity characteristics

**Q.** Which residual moisture (Residual moisture; Tables 1-4, salts lyophilised without support, listed as SAM.nHCl, n=6) does the source give for `C[S+](CCC(N)C(=O)[O-])CC1OC(n2cnc3c(N)ncnc32)C(O)C1O` (stereo not drawn) [SAM.6HCl.0.7H2 O] here?
**A.** 2%

**Q.** And the “degradation at 45° C. after 60 days” value [1]?
**A.** 5%

**Q.** And the “degradation at 45° C. after 120 days” value [1]?
**A.** 10%

**Q.** And the “degradation at 45° C. after 180 days” value [1]?
**A.** 14%

**Q.** What about the “degradation at 45° C. after 240 days” value [1] of the same compound?
**A.** 17%

**Q.** What about the “degradation at 45° C. after 360 days” value [1] of the same compound?
**A.** 20%

**Q.** For `C[S+](CCC(N)C(=O)[O-])CC1OC(n2cnc3c(N)ncnc32)C(O)C1O` (stereo not drawn) [SAM.nH2 SO4, n=0.5, reference compound], which residual moisture (Residual moisture; [4]) is on record?
**A.** 0.2%

**Q.** What about the “degradation at 45° C. after 60 days” value [1] of the same compound?
**A.** 100%

**Q.** What about the “degradation at 45° C. after 120 days” value [1] of the same compound?
**A.** 100%

**Q.** What about the “degradation at 45° C. after 180 days” value [1] of the same compound?
**A.** 100%

**Q.** And the “degradation at 45° C. after 240 days” value [1]?
**A.** 100%

**Q.** And the “degradation at 45° C. after 360 days” value [1]?
**A.** 100%

**Q.** What does the source list for `C[S+](CCC(N)C(=O)[O-])CC1OC(n2cnc3c(N)ncnc32)C(O)C1O` (stereo not drawn) [SAM.nH2 SO4, n=1, reference compound]?
**A.** residual moisture (Residual moisture; [4]): 0.5%; degradation at 45° C. after 60 days [1]: 80%; degradation at 45° C. after 120 days [1]: 100%; degradation at 45° C. after 180 days [1]: 100%; degradation at 45° C. after 240 days [1]: 100%; degradation at 45° C. after 360 days [1]: 100%

**Q.** Which results are given for `C[S+](CCC(N)C(=O)[O-])CC1OC(n2cnc3c(N)ncnc32)C(O)C1O` (stereo not drawn) [SAM.nH2 SO4, n=1.5, reference compound]?
**A.** residual moisture (Residual moisture; [4]): 0.8%; degradation at 45° C. after 60 days [1]: 30%; degradation at 45° C. after 120 days [1]: 60%; degradation at 45° C. after 180 days [1]: 80%; degradation at 45° C. after 240 days [1]: 100%; degradation at 45° C. after 360 days [1]: 100%

**Q.** Which residual moisture (Residual moisture; [4]) does the source give for `C[S+](CCC(N)C(=O)[O-])CC1OC(n2cnc3c(N)ncnc32)C(O)C1O` (stereo not drawn) [SAM.nHCl, n=1, reference compound] here?
**A.** 0.2%

**Q.** And the “degradation at 45° C. after 60 days” value [1]?
**A.** 100%

**Q.** And the “degradation at 45° C. after 120 days” value [1]?
**A.** 100%

**Q.** What about the “degradation at 45° C. after 180 days” value [1] of the same compound?
**A.** 100%

**Q.** What about the “degradation at 45° C. after 240 days” value [1] of the same compound?
**A.** 100%

**Q.** What about the “degradation at 45° C. after 360 days” value [1] of the same compound?
**A.** 100%

**Q.** Which results are given for `C[S+](CCC(N)C(=O)[O-])CC1OC(n2cnc3c(N)ncnc32)C(O)C1O` (stereo not drawn) [SAM.nHCl, n=2, reference compound]?
**A.** residual moisture (Residual moisture; [4]): 0.5%; degradation at 45° C. after 60 days [1]: 80%; degradation at 45° C. after 120 days [1]: 100%; degradation at 45° C. after 180 days [1]: 100%; degradation at 45° C. after 240 days [1]: 100%; degradation at 45° C. after 360 days [1]: 100%

**Q.** What does the source list for `C[S+](CCC(N)C(=O)[O-])CC1OC(n2cnc3c(N)ncnc32)C(O)C1O` (stereo not drawn) [SAM.nHCl, n=3, reference compound]?
**A.** residual moisture (Residual moisture; [4]): 0.8%; degradation at 45° C. after 60 days [1]: 30%; degradation at 45° C. after 120 days [1]: 60%; degradation at 45° C. after 180 days [1]: 80%; degradation at 45° C. after 240 days [1]: 100%; degradation at 45° C. after 360 days [1]: 100%

**Q.** Which “temperature up to which the salt is stable” value [3] does the source give for `C[S+](CCC(N)C(=O)[O-])CC1OC(n2cnc3c(N)ncnc32)C(O)C1O` (stereo not drawn) [disulphatediparatoluene sulphonate, SAM disulphatediparatoluene sulphonate] here?
**A.** up to 45 °C

**Q.** With `C[S+](CCC(N)C(=O)[O-])CC1OC(n2cnc3c(N)ncnc32)C(O)C1O` (stereo not drawn) [triparatoluene sulphonate, SAM triparatoluene sulphonate] as the compound, how does the “temperature up to which the salt is stable” value [3] read?
**A.** up to 25 °C
